Data from patent publication US20020173523A1, “IMMUNOSUPPRESSION BY PHOTOCHEMOTHERAPY” (priority 1997, published 2002).

Key:
BALB/c mice = assay: Contact hypersensitivity test: ear swelling after primary and secondary sensitization with picryl chloride, photochemotherapy with 664 nm laser light; format: in vivo; conditions: for Rate of Ear swelling, (%) (Average value ± Standard deviation): laser 664 nm, 10 J/cm^2, 30 min after dosing, untreated group = 100%, 24 h after secondary sensitization
From the text: After the intravenous injection, hair of the abdominal side of the mice was shaved off. Thirty minutes after the administration of the test compound, a laser light at a wave length of 664 nm was irradiated onto the exposed skin of the abdominal side of the mice to give a total fluence of 10 J/cm^2 under the conditions of the laser output of 20 mW/cm^2 and the radiated spots of a diameter of 18 mm.
Five days after the primary sensitization, an aqueous solution containing 1% picryl chloride was applied to one ear of each mouse under test, to effect the secondary sensitization. Thus, there were prepared the treated groups of the test mice having a contact hypersensitibity.
(iii) Twenty-four hours after the secondary sensitization, namely six days after the primary sensitization, measurements were made of the thickness of both the ears of each mouse under test by a thickness gauge, and the increases in the thickness of ears were calculated from the difference which was found between the thickness of the one ear having not received the application of picryl chloride and the thickness of the another ear having received the application of picryl chloride for the secondary sensitization. Then, the rates (%) of ear swelling of each mouse of the treated group of mice were evaluated, on such assumption that the average value of the increase in the thickness of the secondarily sensitized ears of the mice of the untreated group was regarded as amounting to 100%, in respect of the mice of the untreated group of mice where the mice were neither administered with the test compound, nor were irradiated with the laser light, but where the mice received only the primary and secondary sensitizations with picryl chloride.

[1] = test system: mice of BALB/c (H-2K^d) strain; assay: Rejection reactions upon transplantation of skin in mice, photochemotherapy with 664 nm laser light; format: in vivo; conditions: for Percentage (%) of number of the mice with the surviving and remaining skin graft transplanted: 1 mg/kg i.v., laser 664 nm 10 J/cm^2
Experimental: The following experiment was conducted in order to evaluate the therapeutic effect of the photochemotherapeutical method of this invention for treating the rejection reactions raised upon the transplantation of skin in mice.
Thus, as the mice (the recipient) which were to recieve a transplantation of skin, were used mice of BALB/c (H-2K^d) strain (ten mice per group). […] Thirty minutes after the intravenous injection of the test compound, a laser light at the wave length of 664 nm was irradiated onto the abdominal side of each recipient mouse at the laser output of 20 mW/cm^2, at the irradiated spots of a diameter of 18 mm and at a total laser fluence of 10 J/cm^2.
On the other hand, mice of CH/HeN(H-2K^b) strain were used as the mice (the donor) which were to afford the graft of skin for the transplantation to the recipient. The graft of skin to be used for the skin transplantation was one piece of the tail skin of the donor mice which was cut into a piece of about 5 mm×5 mm. This graft of skin was transplanted on the back side of the recipient mouse in such a manner that hair of the back side of the mouse was firstly shaved off, then one region of the skin of the hair-shaved back side of mouse was stripped off and the skin graft was transplanted onto the skin-stripped region of the back side of the recipient mouse. This skin transplantation was performed twenty-four hours after the irradiation of laser light on the recipient mouse.
Then, observation was made as to whether the skin graft so transplanted would fall off or not fall from the recipient mouse within the period of from the time of the skin transplantation to the 15 the days after the intravenous injection of the test compound.
The number of the recipient mice which normally have the transplanted and surviving skin graft remaining on the back side of mouse was counted at each of the given days of observation. The ratio of the number of the graft-remaining mouse at the each day to the number of the mouse at 0 day was expressed as percentage (%), with that the number of the recipient mice at the 0 day being assumed as 100.
Mice of the untreated group were those mice which received the skin transplantation only but neither received the administration of the test compound nor received the irradiation of laser light.

CD-1 mice (male) = assay: Acute toxicity; format: in vivo

## C=Cc1c(C)c2cc3nc(c(CC(=O)N[C@@H](CC(=O)[O-])C(=O)[O-])c4[nH]c(cc5nc(cc1[nH]2)C(C)=C5CC)c(C)c4C(=O)[O-])[C@@H](CCC(=O)[O-])[C@@H]3C.[Na+].[Na+].[Na+].[Na+]
BALB/c mice; 0.001 mg/kg i.v.
  Rate of Ear swelling, (%) (Average value ± Standard deviation): 54.4 ± 7.2%
BALB/c mice; 0.01 mg/kg i.v.
  Rate of Ear swelling, (%) (Average value ± Standard deviation): 53.2 ± 20.6%
BALB/c mice; 0.05 mg/kg i.v.
  Rate of Ear swelling, (%) (Average value ± Standard deviation): 33.3 ± 4.4%
BALB/c mice; 0.1 mg/kg i.v.
  Rate of Ear swelling, (%) (Average value ± Standard deviation): 27.8 ± 8.5%
BALB/c mice; i.v. dosages of 0.001 mg/kg or more, then laser light
  Suppression of the ear swelling: ≥ 45%
BALB/c mice; i.v., laser light at 664 nm
  Ear swelling in contact hypersensitivity testing (result in words): remarkably be suppressed
[1]; 0th day (day of skin transplantation)
  Percentage (%) of number of the mice with the surviving and remaining skin graft transplanted: 100%
[1]; 6th day
  Percentage (%) of number of the mice with the surviving and remaining skin graft transplanted: 100%
[1]; 7th day
  Percentage (%) of number of the mice with the surviving and remaining skin graft transplanted: 80%
[1]; 10th day
  Percentage (%) of number of the mice with the surviving and remaining skin graft transplanted: 80%
[1]; 11th day
  Percentage (%) of number of the mice with the surviving and remaining skin graft transplanted: 80%
[1]; 15th day
  Percentage (%) of number of the mice with the surviving and remaining skin graft transplanted: 0%
[1]; i.v., laser light at 664 nm
  Rejection reactions in transplantation of skin (result in words): preventively suppressed
[1]; within the period of 6th to 11th days, treated group
  Percentage of the total mice tested with falling off of the skin graft: 20%
CD-1 mice (male)
  LD50: 164 mg/kg
Photo-toxicity test
  Photo-toxicity reactions (result in words): no reactions such as erythema, edema
